In patent publication US20230322789A1, “PYRAZOLOPYRIDAZINONE COMPOUND, AND PHARMACEUTICAL COMPOSITION AND USE THEREOF” (BroadenBio Co., Ltd., priority 2020, published 2023):
Where a name gives a salt, the structure may show the parent alone.

What was measured:
[1] = tested on: Human Jurkat-E6-1 cells; experiment: Measurement of IL-2 secretion of Jurkat cells by ELISA; format: cell-based; details: anti-CD3/anti-CD28 stimulation 24 hours; for activity at 3 µM / activity at 1 µM: Homo sapiens, Jurkat E6.1, read-out: Percentage of the amount of IL-2 secreted from compound treated/DMSO-treated cells; for activity at 1 µM: test compound 1.0 μM
In short: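 Jurkat-E6-1 cells pre-incubated with compound for 30 min at 37° C, then stimulated 24 h with plate-bound anti-CD3 plus soluble anti-CD28. Secreted IL-2 in medium quantified by sandwich ELISA against a standard curve; expressed as percent of DMSO-treated cells.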

[2] = molecular target: HPK1 (Homo sapiens (Human), UniProt Q92918); experiment: HPK1 kinase activity inhibition test (ADP-Glo, luminescence); format: biochemical; details: HPK1 5 nM, ATP 2 μM, read-out: IC50, inhibitory effects of compounds on HPK1 kinase activity
In short: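 HPK1 autophosphorylation was run without added substrate. Kinase and compound were preincubated 10 min at 25° C., then ATP was added for 60 min at 25° C. ADP formed was detected by ADP-Glo luminescence, and IC50 was taken from a four-parameter nonlinear fit.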

HPK1, sequence (Q92918 whole entry): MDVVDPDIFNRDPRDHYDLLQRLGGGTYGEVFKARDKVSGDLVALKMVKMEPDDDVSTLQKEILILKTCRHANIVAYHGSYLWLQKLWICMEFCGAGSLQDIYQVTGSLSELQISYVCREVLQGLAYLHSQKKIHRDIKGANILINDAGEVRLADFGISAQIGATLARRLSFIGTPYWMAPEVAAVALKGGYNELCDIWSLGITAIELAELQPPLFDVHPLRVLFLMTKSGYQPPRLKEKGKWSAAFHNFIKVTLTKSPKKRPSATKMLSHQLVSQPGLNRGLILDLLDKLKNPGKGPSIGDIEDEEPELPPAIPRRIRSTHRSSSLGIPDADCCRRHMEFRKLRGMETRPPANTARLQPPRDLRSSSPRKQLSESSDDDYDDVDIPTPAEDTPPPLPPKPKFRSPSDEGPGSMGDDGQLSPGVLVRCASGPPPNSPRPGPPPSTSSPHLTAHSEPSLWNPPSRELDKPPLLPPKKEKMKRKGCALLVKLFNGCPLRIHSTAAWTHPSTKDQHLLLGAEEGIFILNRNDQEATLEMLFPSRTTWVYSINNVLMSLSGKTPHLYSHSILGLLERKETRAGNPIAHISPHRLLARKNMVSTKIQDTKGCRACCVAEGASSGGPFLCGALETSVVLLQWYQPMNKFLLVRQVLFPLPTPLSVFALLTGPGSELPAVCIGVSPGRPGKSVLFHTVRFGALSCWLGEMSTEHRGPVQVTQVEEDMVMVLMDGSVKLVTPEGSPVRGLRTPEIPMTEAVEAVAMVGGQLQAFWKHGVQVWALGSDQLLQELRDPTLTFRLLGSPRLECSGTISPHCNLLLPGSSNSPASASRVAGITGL

Row | Compound | activity at 3 µM ([1]; test compound 3.0 μM) | IC50 [2] | activity at 1 µM [1] | Percentage of the amount of IL-2 secreted from compound treated/DMSO-treated cells ([1]; test compound 3.0 μM)
1 | [2H]C([2H])([2H])N1CCc2ccc(-c3n[nH]c4cc(=O)n(-c5c(C)cccc5F)nc34)cc2C1 [Compound 157, 5-(2-fluoro-6-methylphenyl)-3-(2-(methyl-d3)-1,2,3,4-tetrahydroisoquinolin-7-yl)-1H-pyrazolo[4,3-c]pyridazin-6(5H)-one] | 935% | ≤ 50 nM | – | –
2 | COc1cc(C#N)cc(F)c1-n1nc2c(-c3ccc4c(c3)CN(C)CC4)n[nH]c2cc1=O [Compound 159, 3-fluoro-5-methoxy-4-(3-(2-methyl-1,2,3,4-tetrahydroisoquinolin-7-yl)-6-oxo-1H-pyrazolo[4,3-c]pyridazin-5(6H)-yl)benzonitrile] | 454% | ≤ 50 nM | – | –
3 | CCc1cccc(F)c1-n1nc2c(-c3ccc4c(c3)CN(C)CC4)n[nH]c2cc1=O [Compound 160, 5-(2-ethyl-6-fluorophenyl)-3-(2-methyl-1,2,3,4-tetrahydroisoquinolin-7-yl)-1H-pyrazolo[4,3-c]pyridazin-6(5H)-one] | 354% | ≤ 50 nM | – | –
4 | Cc1cccc(F)c1-n1nc2c(-c3ccc4c(c3)CNCC4)n[nH]c2cc1=O [Compound 161, 5-(2-fluoro-6-methylphenyl)-3-(1,2,3,4-tetrahydroisoquinolin-7-yl)-1H-pyrazolo[4,3-c]pyridazin-6(5H)-one hydrochloride] | 393% | ≤ 50 nM | – | –
5 | Cc1cccc(F)c1-n1nc2c(-c3ccc4c(c3)CN(CCO)CC4)n[nH]c2cc1=O [Compound 162, 5-(2-fluoro-6-methylphenyl)-3-(2-(2-hydroxyethyl)-1,2,3,4-tetrahydroisoquinolin-7-yl)-1H-pyrazolo[4,3-c]pyridazin-6(5H)-one] | 586% | ≤ 50 nM | – | –
6 | Cc1cccc(F)c1-n1nc2c(-c3ccc4c(c3)CN(C3CC(N)C3)CC4)n[nH]c2cc1=O (stereo not drawn) [Compound 163] | 117% | 50 to 500 nM | – | –
7 | Cc1cccc(F)c1-n1nc2c(-c3ccc4c(c3)CN(C3CNC3)CC4)n[nH]c2cc1=O [Compound 164, 3-(2-(azetidin-3-yl)-1,2,3,4-tetrahydroisoquinolin-7-yl)-5-(2-fluoro-6-methylphenyl)-1H-pyrazolo[4,3-c]pyridazin-6(5H)-one hydrochloride] | 159% | 50 to 500 nM | – | –
8 | Cc1cccc(F)c1-n1nc2c(-c3ccc4c(c3)CN(C(C)CO)CC4)n[nH]c2cc1=O (stereo not drawn) [Compound 165, 5-(2-fluoro-6-methylphenyl)-3-(2-(1-hydroxylprop-2-yl)-1,2,3,4-tetrahydroisoquinolin-7-yl)-1H-pyrazolo[4,3-c]pyridazin-6(5H)-one] | – | 50 to 500 nM | 181% | –
9 | Cc1cc(C#N)cc(F)c1-n1nc2c(-c3ccc4c(c3)CN(C)CC4)n[nH]c2cc1=O [Compound 170, 3-fluoro-5-methyl-4-(3-(2-methyl-1,2,3,4-tetrahydroisoquinolin-7-yl)-6-oxo-1H-pyrazolo[4,3-c]pyridazin-5(6H)-yl)benzonitrile] | – | ≤ 50 nM | 279% | –
10 | Cc1cc(C#N)cc(F)c1-n1nc2c(-c3ccc4c(c3)CNCC4)n[nH]c2cc1=O [Compound 171, 3-fluoro-5-methyl-4-(3-(1,2,3,4-tetrahydroisoquinolin-7-yl)-6-oxo-1H-pyrazolo[4,3-c]pyridazin-5(6H)-yl)benzonitrile] | 220% | 50 to 500 nM | – | –
11 | Cc1cccc(F)c1-n1nc2c(-c3ccc4c(c3)CN3C(=O)OC[C@@H]3C4)n[nH]c2cc1=O [Compound 177, (S)-7-(5-(2-fluoro-6-methylphenyl)-6-oxo-5,6-dihydro-1H-pyrazolo[4,3-c]pyridazin-3-yl)-10,10a-dihydro-1H-oxazolo[3,4-b]isoquinolin-3(5H)-one] | 481% | ≤ 50 nM | – | –
12 | Cc1cccc(F)c1-n1nc2c(-c3ccc4c(c3)CCN(C3CNC3)C4)n[nH]c2cc1=O [Compound 193] | 169% | ≤ 50 nM | – | –
13 | Cc1cccc(F)c1-n1nc2c(-c3cccc(N4CCN(C)CC4)c3)n[nH]c2cc1=O [Compound 198, 5-(2-fluoro-6-methylphenyl)-3-(3-(4-methylpiperazin-1-yl)phenyl)-1H-pyrazolo[4,3-c]pyridazin-6(5H)-one] | 280% | ≤ 50 nM | – | –
14 | COc1cccc(F)c1-n1nc2c(-c3cccc(N4CCN(C)CC4)c3)n[nH]c2cc1=O [Compound 199, 5-(2-fluoro-6-methoxyphenyl)-3-(3-(4-methylpiperazin-1-yl)phenyl)-1H-pyrazolo[4,3-c]pyridazin-6(5H)-one] | – | ≤ 50 nM | 328% | –
15 | CCc1cccc(F)c1-n1nc2c(-c3cccc(N4CCN(C)CC4)c3)n[nH]c2cc1=O [Compound 200, 5-(2-ethyl-6-fluorophenyl)-3-(3-(4-methylpiperazin-1-yl)phenyl)-1H-pyrazolo[4,3-c]pyridazin-6(5H)-one] | 286% | ≤ 50 nM | – | –
16 | COc1cccc(F)c1-n1nc2c(-c3cccc(N4CC5CCC(C4)N5C)c3)n[nH]c2cc1=O [Compound 202, 5-(2-fluoro-6-methoxyphenyl)-3-(3-(8-methyl-3,8-diazabicyclo[3.2.1]octan-3-yl)phenyl)-1H-pyrazolo[4,3-c]pyridazin-6(5H)-one] | – | ≤ 50 nM | 539% | –
17 | COc1cccc(F)c1-n1nc2c(-c3cccc(N4CCCC(N)C4)c3)n[nH]c2cc1=O (stereo not drawn) [Compound 204] | – | ≤ 50 nM | – | 260%
18 | COc1cccc(F)c1-n1nc2c(-c3cc(N4CCN(C)CC4)ccc3F)n[nH]c2cc1=O [Compound 210, 3-(2-fluoro-5-(4-methylpiperazin-1-yl)phenyl)-5-(2-fluoro-6-methoxyphenyl)-1H-pyrazolo[4,3-c]pyridazin-6(5H)-one] | – | ≤ 50 nM | 298% | –
